Experimental data as given in patent US9073892B2, “Indazolyl triazol derivatives” (Merck Serono S.A., priority 2010, dated 2015).
Structures can show the parent of a compound that is named as a salt.

Key:
[1] = tested on: IL1β-induced IL8 release in THP1 cells; assay: IRAK IL8 secretion functional assay; type: cell-based; conditions: Homo sapiens; THP-1 cells, IL1β 100 ng/ml overnight, IL8 by HTRF; read-out: IC50, Secretion THP-1/IL-β induced IL8 release
In short: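 THP-1 cells (30,000/well, RPMI 1640) were incubated overnight at 37 °C, 5% CO2 with compound (20 μM to 1 nM) plus IL1β at 100 ng/ml final. IL-8 in the supernatant was measured by HTRF with europium cryptate- and XL665-labelled anti-IL8 antibodies, read after 3 h at 30 °C.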

[2] = tested on: IL-6 secretion in human PBMC; assay: IRAK IL-6 secretion functional assay in human PBMC; type: cell-based; conditions: preincubated 1 h with test article, stimulated with 10 ng/ml IL1, 18-20 h, ELISA
Method: IRAK IL-6 Secretion Functional Assay in Human PBMC
Human PBMCs from healthy volunteers were purified from buffy coats of heparinized whole blood by density centrifugation on Ficoll-Hypaque. Isolated PBMCs were washed twice in PBS, counted, and seeded at a density of 7×10^4 cells/well in 180 µl of complete RPMI 1640 medium containing 10% heat-inactivated FBS. PBMC were preincubated for 1 h with serial dilutions of test article dissolved in DMSO (final DMSO concentration 0.33%) at 37° C. in a 5% CO2 incubator. PBMC were then stimulated with 10 ng/ml of IL1-(final volume […]) and incubation was continued for 18-20 h. The supernatants were collected and IL-6 was quantified using the Duo-set ELISA kit (R&D Systems) following manufacturer's instructions

LPS-induced TNFα release = assay: LPS-induced cytokine release in mice (TNFα); type: in vivo; conditions: female C57B6 mice; for inhibition of LPS-induced TNFα release in mice: 30 min before LPS 1 mg/kg i.p., serum 2 hours after LPS
Method: (§1) LPS-Induced Cytokine Release in Mice
(§2) Female C57B6 mice (8-10 weeks 4-6 mice/group) were dosed p.o. with vehicle (40% Kleptose in water), reference compound dexamethasone (1 mg/kg) or three different doses of compound 1 (10, 30 and 60 mg/kg at 10 mL/kg). 30 minutes after compound administrations mice were injected i.p. with LPS (0111:B4, 1 mg/kg). 2 hours after LPS injection mice were sacrificed. Serum was collected; cytokine levels (TNF-α and IL-6) were detected by ELISA or OBA.

LPS-induced IL-6 release = assay: LPS-induced cytokine release in mice (IL-6); type: in vivo; conditions: female C57B6 mice; for inhibition of LPS-induced IL-6 release in mice: 30 min before LPS 1 mg/kg i.p., serum 2 hours after LPS
Method: as §1, §2

IRAK1/4 human = tested on: T1, IRAK1/4 human; assay: IRAK1/4 phosphorylation IC50 (enzymatic assay, table 2); type: biochemical; conditions: human IRAK1/4 phosphorylation
T1 construct: fused on or other part: His tag and TEV cleavage site at the N-terminus
In short: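 Inhibition values are IC50s. They come from 384-well reactions in which His-TEV-tagged human IRAK-1 or IRAK-4 (the latter with STK1-biotin peptide) met ATP and compounds in DMSO at 20 µM to 1 nM. The buffer was 50 mM Hepes pH7.0 containing MgCl2, DTT, EGTA and BSA, and incubation lasted 2 or 3 hours.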

SMILES	IC50 [1] [nM]	IC50 (IRAK1/4 human) [nM]	IC50 [2] [nM]	other results
Cc1ccc2c(-c3cn(-c4ccc(C5CCNCC5)cc4)nn3)n[nH]c2c1 (as salt: HCl) [Example 265]	–	–	–	melting point: 303 °C
Cc1ccc2[nH]nc(-c3cn(-c4ccc(CN5CCOCC5)cc4)nn3)c2c1 [Example 7, 5-methyl-3-{1-[4-(morpholin-4-ylmethyl)phenyl]-1H-1,2,3-triazol-4-yl}-1H-indazole]	100 to 1000	100 to 1000	200 to 2000	–
CN1CCC(c2ccc3[nH]nc(-c4cn(-c5ccc(C(=O)N6CCOCC6)cc5)nn4)c3c2)CC1 [Example 124, 5-(1-methylpiperidin-4-yl)-3-{1-[4-(morpholin-4-ylcarbonyl)phenyl]-1H-1,2,3-triazol-4-yl}-1H-indazole]	100 to 1000	< 100	< 200	–
CN1C2CCC1CC(n1cc(NC(=O)c3ccc(-n4cc(-c5n[nH]c6ccccc56)nn4)cc3)cn1)C2 (centres unmarked) [Example 125, 4-[4-(1H-indazol-3-yl)-1H-1,2,3-triazol-1-yl]-N-[1-(8-methyl-8-azabicyclo[3.2.1]oct-3-yl)-1H-pyrazol-4-yl]benzamide]	100 to 1000	< 100	200 to 2000	–
C[C@@H]1C[C@H]2[C@@H]3CCC4=CC(=O)C=C[C@]4(C)[C@@]3(F)[C@@H](O)C[C@]2(C)[C@@]1(O)C(=O)CO [dexamethasone, reference compound]	–	–	–	inhibition of LPS-induced TNFα release in mice (LPS-induced TNFα release; 1 mpk po): 97% INH; inhibition of LPS-induced IL-6 release in mice (LPS-induced IL-6 release; 1 mpk po): 83% INH

Second part, led by results:

IC50 [1] [nM]	IC50 (IRAK1/4 human) [nM]	SMILES	IC50 [2] [nM]	other results
100 to 1000	100 to 1000	O=C(c1ccc(-n2cc(-c3n[nH]c4ccccc34)nn2)cc1)N1CCOCC1 [Example 1, 3-{1-[4-(morpholin-4-ylcarbonyl)phenyl]-1H-1,2,3-triazol-4-yl}-1H-indazole]	200 to 2000	LPS-induced TNFα release in mice (result in words) (LPS-induced TNFα release; 10, 30 and 60 mg/kg p.o.): inhibits dose dependently; inhibition of LPS-induced TNFα release in mice (LPS-induced TNFα release; 10 mpk po): 36% INH; inhibition of LPS-induced TNFα release in mice (LPS-induced TNFα release; 30 mpk po): 43% INH; inhibition of LPS-induced TNFα release in mice (LPS-induced TNFα release; 60 mpk po): 61% INH; LPS-induced IL-6 release in mice (result in words) (LPS-induced IL-6 release; 10, 30 and 60 mg/kg p.o.): inhibits dose dependently; inhibition of LPS-induced IL-6 release in mice (LPS-induced IL-6 release; 10 mpk po): 9% INH; inhibition of LPS-induced IL-6 release in mice (LPS-induced IL-6 release; 30 mpk po): 25% INH; inhibition of LPS-induced IL-6 release in mice (LPS-induced IL-6 release; 60 mpk po): 66% INH
< 100	< 100	O=C(c1ccc(-n2cc(-c3n[nH]c4ccccc34)nn2)cc1)N1CCCC(CN2CCCC2)C1 (centres unmarked) [Example 2, 3-[1-(4-{[3-(pyrrolidin-1-ylmethyl)piperidin-1-yl]carbonyl}phenyl)-1H-1,2,3-triazol-4-yl]-1H-indazole]	200 to 2000	–
100 to 1000	100 to 1000	O=C(c1ccc(-n2cc(-c3n[nH]c4ccccc34)nn2)cc1)N1CCCC(O)C1 (centres unmarked) [Example 30]	200 to 2000	–
100 to 1000	< 100	O=C(c1ccc(-n2cc(-c3n[nH]c4ccccc34)nn2)cc1)N1CCCC(CO)C1 (centres unmarked) [Example 33]	< 200	–
